Test results taken from PMC12503909, “C1′‐Branched Acyclic Nucleoside Phosphonates as Inhibitors of Plasmodium Falciparum 6‐Oxopurine Phosphoribosyltransferase” (Chemmedchem, 2025).

Legend:
HeLa = test: Cytotoxicity of the prodrug in human cells (CellTiter-Glo 2.0), HeLa; type: cell-based; details: 10 µM, versus untreated control; mean ± SD
Method: (§1) Compound cytotoxicity was evaluated in nontumor human dermal fibroblasts (NHDF), CCRF‐CEM, HL‐60, HeLa, and HepG2 cells. All cell lines were obtained from ATCC (Manassas, VA, USA). The cytotoxicity was assayed using CellTiter‐Glo 2.0 detection reagent (Promega, Madison, USA) according to the manufacturer's protocol. The concentration of prodrug used in this assay was 10 μM. This concentration was chosen as it would more accurately reflect the expected concentration in an in vitro assessment.

HL-60 = test: Cytotoxicity of the prodrug in human cells (CellTiter-Glo 2.0), HL-60; type: cell-based; details: 10 µM, versus untreated control; mean ± SD
Method: as §1

P. falciparum W2 = test: In vitro antimalarial activity, 3H-hypoxanthine growth inhibition assay, W2 line; type: cell-based, Plasmodium falciparum; details: Plasmodium falciparum, W2, Erythrocyte, 96 h, Pf infected erythrocytes, W2 strain resistant to chloroquine, mean ± SD of three independent experiments
Method: (§2) The IC50 values were determined as previously described.^[ [32] ^] P. falciparum D6 (Sierra‐Leone) laboratory line, sensitive to most antimalarial drugs, and W2 (Indochina) line, resistant to chloroquine and pyrimethamine, were maintained as previously described^[ [33] ^] in medium consisted of 10.4 g L^−1 RPMI‐1640‐LPLF powder (Gibco BRL), 5.97 g L^−1 HEPES buffer (MP Biomedicals, USA), 2.0 g L^−1 d‐glucose (BDH chemicals, Australia), 0.05 g L^−1 hypoxanthine (Sigma, USA) and 40 mg L^−1 gentamycin (Pfizer, Australia), supplemented with 0.21% NaHCO3 and 10% human plasma prior to use. Red blood cells O (Rh+) type were obtained from the Australian Red Cross Blood Service and added to 4% haematocrit. Cultures were routinely synchronized using D‐sorbitol.^[ [34] ^] To evaluate the antimalarial activity of the ANPs, the ^3H‐hypoxanthine growth inhibition assay was utilized, where the uptake of ^3H‐hypoxanthine by malaria parasites is used as a surrogate marker for parasite growth. For these assays, stock solutions of the tested compounds were made to concentrations of 20–40 mM in DMSO or water and subsequently diluted in hypoxanthine‐free complete media prior to assay. The assays (in 96‐well plate format) were initiated when most parasites (> 90%) were at the early trophozoite (ring) stage. Parasite cultures (100 μL per well) at 0.5% initial parasitemia and 2% hematocrit in hypoxanthine‐free RPMI1640‐LPLF medium were exposed to ten twofold serial dilutions of the compounds and chloroquine (reference drug) for 96 h, with ^3H‐hypoxanthine (0.2 μCi well^−1) added ≈48 h after the beginning of the experiment.
(§3) The ^3H‐hypoxanthine incorporation data were analyzed, and sigmoidal growth inhibition curves were produced by nonlinear regression analysis of the ^3H‐hypoxanthine incorporation data versus log‐transformed concentrations of the compounds using Graphpad Prism V5.0 software (GraphPad Software Inc. USA). […] The IC50 values were based on three independent experiments, with mean ± SD calculated.

P. falciparum D6 = test: In vitro antimalarial activity, 3H-hypoxanthine growth inhibition assay, D6 line; type: cell-based, Plasmodium falciparum; details: Plasmodium falciparum, D6, Erythrocyte, 96 h, Pf infected erythrocytes, D6 strain sensitive to chloroquine, mean ± SD of three independent experiments
Method: as §2, §3

HepG2 = test: Cytotoxicity of the prodrug in human cells (CellTiter-Glo 2.0), HepG2; type: cell-based; details: 10 µM, versus untreated control; mean ± SD
Method: as §1

NHDF = test: Cytotoxicity of the prodrug in human cells (CellTiter-Glo 2.0), NHDF; type: cell-based; details: 10 µM, versus untreated control; mean ± SD
Method: as §1

CCRF-CEM = test: Cytotoxicity of the prodrug in human cells (CellTiter-Glo 2.0), CCRF-CEM; type: cell-based; details: 10 µM, versus untreated control; mean ± SD
Method: as §1

| SMILES | Viability HeLa (HeLa) [% control] | Viability HL-60 (HL-60) [% control] | IC50 (P. falciparum W2) [µM] | IC50 (P. falciparum D6) [µM] | Viability HepG2 (HepG2) [% control] | Viability NHDF (NHDF) [% control] | Viability CCRF-CEM (CCRF-CEM) [% control] |
| --- | --- | --- | --- | --- | --- | --- | --- |
| CCOC(=O)[C@H](Cc1ccccc1)NP(=O)(CCOCC(OCCO)n1cnc2c(=O)[nH]c(N)nc21)N[C@@H](Cc1ccccc1)C(=O)OCC (stereo partly shown) [21d, Bis‐(L‐phenylalaninate ethyl ester) prodrug of (2‐(2‐(guanin‐9‐yl)‐2‐(2‐hydroxyethoxy)ethoxy)ethyl) phosphonic acid] | 100 ± 2 | 105 ± 1 | 39 ± 5 | 64 ± 6 | 107 ± 2 | 112 ± 1 | 99 ± 4 |
| CCOC(=O)[C@H](Cc1ccccc1)NP(=O)(COCCC(OCCCO)n1cnc2c(=O)[nH]cnc21)N[C@@H](Cc1ccccc1)C(=O)OCC (stereo partly shown) [21e, Bis‐(L‐phenylalaninate ethyl ester) prodrug of ((3‐(3‐hydroxypropoxy)‐3‐(hypoxanthin‐9‐yl)propoxy)methyl) phosphonic acid] | 105 ± 1 | 110 ± 1 | 41 ± 5 | 14 ± 2 | 106 ± 3 | 110 ± 7 | 105 ± 2 |
| CCOC(=O)[C@H](Cc1ccccc1)NP(=O)(COCCC(OCCCO)n1cnc2c(=O)[nH]c(N)nc21)N[C@@H](Cc1ccccc1)C(=O)OCC (stereo partly shown) [21f, Bis‐(L‐phenylalaninate ethyl ester) prodrug of ((3‐(3‐hydroxypropoxy)‐3‐(guanin‐9‐yl)propoxy)methyl) phosphonic acid] | 106 ± 1 | 105 ± 2 | 26 ± 14 | 13 ± 2 | 110 ± 2 | 116 ± 4 | 103 ± 1 |
| CCOC(=O)[C@H](Cc1ccccc1)NP(=O)(COCCC(OCCCO)n1ncc2c(=O)[nH]cnc21)N[C@@H](Cc1ccccc1)C(=O)OCC (stereo partly shown) [21g, Bis‐(L‐phenylalaninateethyl ester) prodrug of ((3‐(3‐hydroxypropoxy)‐3‐(4‐oxo‐4,5‐dihydro‐1H‐pyrazolo[3,4‐d]pyrimidin‐1‐yl)propoxy)methyl) phosphonic acid] | 106 ± 2 | 107 ± 2 | 15 ± 2 | 11 ± 1 | 111 ± 6 | 114 ± 3 | 105 ± 2 |
